# Measurements published in patent US4396623A, “Carbocyclic analogs of uracil nucleosides as antiviral agents” (priority 1981, dated 1983).
# “Also recorded” adds a separate entry of the source. Read-outs that look alike come from different tables or passages of the source.
# Assays:
# [1] = test system: herpes simplex virus, Type 1; assay: Antiviral test against herpes simplex virus, Type 1, growing in rabbit kidney cells (Virus Rating, MIC50); assay type: cell-based; design: key to Virus Rating (VR) / VR: Ehrlich weighted score; 0.5-0.9 marginal-moderate, ≥1 definite activity; conditions: for Antiviral activity against herpes simplex virus, in words: same type of test as Table 1; for VR: same type of test against herpes simplex virus (Table 1)
# Procedure: (§1) Carbocyclic analogs of 5-substituted-2'-deoxyuridines were tested for antiviral activity against viruses that replicate in mammalian cells growing in cell culture. The Virus Rating (VR) is a weighted measurement of antiviral activity determined by the method of Ehrlich et al, Annals of the New York Academy of Science, volume 130, pages 5-16, 1965. In tests carried out by this method, a VR of 0.5-0.9 indicates marginal to moderate antiviral activity and a VR equal to or greater than 1 indicates definite antiviral activity. The higher the value of VR, the greater is the antiviral activity. The MIC50 (minimum inhibitory concentration, 50%) is the concentration of a test compound required for 50% inhibition of virus-induced cytopathogenic effect.
# The results of antiviral tests, performed as described in Example 7, of 5-iodo-2'-deoxyuridine (IdUrd), the carbocyclic analog (Example 3) of 5-iodo-2'-deoxyuridine, 9-β-D-arabinofuranosyladenine (Ara-A), the carbocyclic analog (Example 2) of 5-bromo-2'-deoxyuridine, the carbocyclic analog (Example 5) of 5-(methylamino)-2'-deoxyuridine and the carbocyclic analog of thymidine are summarized in Table 3.
# [2] = test system: Type 2 herpes simplex virus; assay: Antiviral test against Type 2 herpes simplex virus (Virus Rating); assay type: cell-based; conditions: for VR: Type 2 herpes simplex virus
# Procedure: as §1
# [3] = test system: herpes simplex virus; conditions: F. M. Schabel, Jr., Chemotherapy 13, 321-328, 1968; listed as IdUrd; cited from earlier work
# [4] = test system: herpes simplex virus; assay: Activity against intracerebral herpes simplex virus in mice (herpes encephalitis); assay type: in vivo; conditions: for % of Infected Mice that lived 10 days or longer / % of Infected Mice that lived less than six days / Median Survival Time: treated seven days, 10x LD50 intracerebral; for Activity against herpes encephalitis in mice, in words: intracerebral herpes simplex virus
# Procedure: Mice were inoculated intracerebrally with ten times the LD50 of herpes simplex virus. (The LD50 is the amount of virus that would be lethal to 50% of the inoculated animals.) Some of these virus-infected mice were treated for seven days with the carbocyclic analog (Example 3) of IdUrd, and some of these virus-infected mice were not treated and served as a control group.
# [5] = test system: murine leukemia virus; assay: Inhibition of murine leukemia virus replication in mouse embryo cells; assay type: cell-based
# Source text: (§2) Carbocyclic analogs of 5-substituted-2'-deoxyuridines may inhibit the replication of other DNA viruses. Thus, the carbocyclic analog (Example 3) of 5-iodo-2'-deoxyuridine is active against varicella-zoster virus replicating in human foreskin fibroblasts (Table 2). […] The IdUrd analog (Example 3) was also active against murine leukemia virus, an RNA tumor virus.
# [6] = test system: varicella-zoster virus; assay: Inhibition of varicella-zoster virus replication in human foreskin fibroblasts (virus yield-reduction); assay type: cell-based
# Source text: as §2
# Virus titers are expressed in terms of log10 CCID50 (cell
# culture infectious dose, 50%) units per ml., and the reduction in virus
# yield after drug treatment is expressed as a logarithm.
# [7] = Human alphaherpesvirus 1, Table 1, 50% inhibition of virus-induced cytopathogenic effect, rabbit kidney cells, read-out: MIC50 (minimum inhibitory concentration, 50%)
# [8] = Human alphaherpesvirus 1, Table 3 comparison, read-out: MIC50
# [9] = Table 1, rabbit kidney cells, VR 0.5-0.9 marginal to moderate, >=1 definite antiviral activity
smiles,measurement,setting,value
"CNc1cn([C@@H]2C[C@H](CO)[C@@H](O)C2)c(=O)[nH]c1=O (relative stereo) [Example 5, (±)-1-[(1α,3β,4α)-3-Hydroxy-4-(hydroxymethyl)cyclopentyl]-5-(methylamino)-2,4(1H,3H)-pyrimidinedione]",EC50,[1]; [7],15 µg/mL
same,EC50,[1]; [8],10 µg/mL
same,Virus Rating (VR),[1]; [9],3.9
same,Virus Rating (VR),[1]; Table 3 comparison,4.2
same,"Antiviral activity against herpes simplex virus, in words",[1],very high activity; also recorded: active
same,"Activity against Type 2 herpes simplex virus, in words",[2],high activity
same,VR,[2],1.2
"Nc1ncnc2c1ncn2[C@@H]1O[C@H](CO)[C@@H](O)[C@@H]1O [9-β-D-Arabinofuranosyladenine (Ara-A), 9-β-D-arabinofuranosyladenine, reference compound]",EC50,"[1]; Human alphaherpesvirus 1, read-out: MIC50, Table 3 comparison",9.8 µg/mL
same,Virus Rating (VR) (average),"[1]; Table 3 comparison, average",2.7
"O=c1ccn([C@@H]2C[C@H](CO)[C@@H](O)C2)c(=O)[nH]1 (relative stereo) [Formula I, X = H, R = R^1 = H, (±)-1-[(1α,3β,4α)-3-hydroxy-4-(hydroxymethyl)cyclopentyl]-2,4(1H,3H)-pyrimidinedione, reference compound]",Virus Rating (VR),[1]; [9],0
same,"Antiviral activity against herpes simplex virus, in words",[1],not active
"CCCCNc1cn([C@@H]2C[C@H](CO)[C@@H](O)C2)c(=O)[nH]c1=O (relative stereo) [Example 6, (±)-5-(Butylamino)-1-[(1α,3β,4α)-3-hydroxy-4-(hydroxymethyl)cyclopentyl]-2,4(1H,3H)-pyrimidinedione]",EC50,[1]; [7],290 µg/mL
same,Virus Rating (VR),[1]; [9],2.0
same,"Antiviral activity against herpes simplex virus, in words",[1],active
Cc1cn([C@@H]2C[C@H](CO)[C@@H](O)C2)c(=O)[nH]c1=O (relative stereo) [Carbocyclic analog of thymidine],EC50,[1]; [8],0.8 µg/mL
same,Virus Rating (VR),[1]; [9],5.4
same,Virus Rating (VR),[1]; Table 3 comparison,5.4
same,"Antiviral activity against herpes simplex virus, in words",[1],very high activity
same,"Activity against Type 2 herpes simplex virus, in words",[2],high activity
same,VR,[2],3.2
"O=c1[nH]c(=O)n([C@H]2C[C@H](O)[C@@H](CO)O2)cc1I [5-Iodo-2'-deoxyuridine, 5-iodo-2'-deoxyuridine]","Activity against herpes encephalitis in mice, in words",[3],not active; also recorded: does not exhibit this type of antiviral activity
same,EC50,[1]; [8],0.3 µg/mL
Nc1cn([C@@H]2C[C@H](CO)[C@@H](O)C2)c(=O)[nH]c1=O (relative stereo) [reference compound],VR,[1],0.1
same,"Antiviral activity against herpes simplex virus, in words",[1],devoid of significant activity
"CC(=O)OC[C@H]1C[C@@H](n2cc(Br)c(=O)[nH]c2=O)C[C@@H]1OC(C)=O (relative stereo) [Example 1, (±)-5-Bromo-1-[(1α,3β,4α)-3-hydroxy-4-(hydroxymethyl)cyclopentyl]-2,4(1H,3H)-pyrimidinedione Diacetate]",EC50,[1]; [7],92 µg/mL
same,Virus Rating (VR),[1]; [9],1.3
"O=c1[nH]c(=O)n([C@@H]2C[C@H](CO)[C@@H](O)C2)cc1Br (relative stereo) [Example 2, (±)-5-Bromo-1-[(1α,3β,4α)-3-hydroxy-4-(hydroxymethyl)cyclopentyl]-2,4(1H,3H)-pyrimidinedione]",EC50,[1]; [8],0.3 µg/mL
same,Virus Rating (VR),[1]; [9],6.2
same,Virus Rating (VR),[1]; Table 3 comparison,6.2
same,"Antiviral activity against herpes simplex virus, in words",[1],very high activity; also recorded: high activity
same,"Activity against Type 2 herpes simplex virus, in words",[2],high activity
same,VR,[2],1.5
"O=c1[nH]c(=O)n([C@@H]2C[C@H](CO)[C@@H](O)C2)cc1I (relative stereo) [Example 3, (±)-1-[(1α,3β,4α)-3-Hydroxy-4-(hydroxymethyl)cyclopentyl]-5-iodo-2,4(1H,3H)-pyrimidinedione]",% of Infected Mice that lived 10 days or longer,[4]; 300 mg./kg.,40%
same,% of Infected Mice that lived less than six days,[4]; 300 mg./kg.,10%
same,Median Survival Time,[4]; 300 mg./kg.,9.2 days
same,% of Infected Mice that lived 10 days or longer,[4]; 400 mg./kg.,50%
same,% of Infected Mice that lived less than six days,[4]; 400 mg./kg.,0%
same,Median Survival Time,[4]; 400 mg./kg.,8.8 days
same,"Activity against herpes encephalitis in mice, in words",[4],active against herpes encephalitis
same,"Activity against herpes encephalitis in mice, in words",[4]; listed as carbocyclic analog of 5-iodo-2'-deoxyuridine,active
same,EC50,"[1]; Human alphaherpesvirus 1, read-out: MIC50 (minimum inhibitory concentration, 50%), Table 1, 50% inhibition of virus-induced cytopathogenic effect, rabbit kidney cells",0.3 µg/mL
same,Virus Rating (VR),[1]; [9],7.1
same,"Activity compared with IdUrd, in words",[1]; Table 3 tests,comparable in activity
same,"Antiviral activity against herpes simplex virus, in words",[1],very high activity; also recorded: high activity
same,"Activity against murine leukemia virus, in words",[5],active
same,Replication of murine leukemia virus in mouse embryo cells,[5]; drug concentration of 32 μg/ml,completely inhibited
same,Virus Yield Log10 CCID50 /ml,[6]; 32 μM,≤ 0.5 Log10 CCID50 /ml
same,"Virus-Induced Cytopathogenic Effects at 10 Days Postinfection, %","[6]; 32 μM, human foreskin fibroblasts",0%
same,Virus Yield Log10 CCID50 /ml,[6]; 100 μM,≤ 0.5 Log10 CCID50 /ml
same,"Virus-Induced Cytopathogenic Effects at 10 Days Postinfection, %","[6]; 100 μM, human foreskin fibroblasts",0%
same,Virus Yield Log10 CCID50 /ml,[6]; 320 μM,≤ 0.5 Log10 CCID50 /ml
same,"Virus-Induced Cytopathogenic Effects at 10 Days Postinfection, %","[6]; 320 μM, human foreskin fibroblasts",0%
same,"observable virus-induced cytopathogenic effects at 10 days postinfection, in words",[6]; 10 days postinfection,no observable virus-induced cytopathogenic effects
same,log reduction at 32 µM,"[6]; Human alphaherpesvirus 3, Fibroblast, 32 μM, read-out: Log10 Reduction in Virus Titer",≥ 4
same,log reduction at 100 µM,"[6]; Human alphaherpesvirus 3, Fibroblast, 100 μM, read-out: Log10 Reduction in Virus Titer",≥ 4
same,log reduction at 320 µM,"[6]; Human alphaherpesvirus 3, Fibroblast, 320 μM, read-out: Log10 Reduction in Virus Titer",≥ 4
same,"Activity against varicella-zoster virus, in words",[6]; human foreskin fibroblasts,active
same,reduction in the titer of virus progeny,[6]; virus yield-reduction experiment,≥ 4.0 log10
same,"Activity against Type 2 herpes simplex virus, in words",[2],high activity
same,VR,[2],3.4
"O=c1[nH]c(=O)n([C@@H]2C[C@H](CO)[C@@H](O)C2)cc1F (relative stereo) [Formula I, X = F, R = R^1 = H, reference compound]",Virus Rating (VR),[1]; [9],0
same,VR,[1],0
same,"Antiviral activity against herpes simplex virus, in words",[1],not active
"CC(=O)OC[C@H]1C[C@@H](n2cc(I)c(=O)[nH]c2=O)C[C@@H]1OC(C)=O (relative stereo) [Example 4, (±)-1-[(1α,3β,4α)-3-Hydroxy-4-(hydroxymethyl)cyclopentyl]-5-iodo-2,4(1H,3H)-pyrimidinedione Diacetate]",EC50,[1]; [7],10 µg/mL
same,Virus Rating (VR),[1]; [9],2.4
